These results are taken from patent US20060276381A1, “Remedy for diabetes” (Chugai Seiyaki Kabushiki Kaisha, priority 2002, published 2006).

For one test, the system named is food-deprived mice. The test can be described thus: Feeding tests in food-deprived lean mice. It is filed as in vivo. The following applies: for Food intake: IP administration, food-deprived mice.
For a further test, the system named is ob/ob mice. The test can be described thus: Feeding test in ob/ob mice. In kind it is in vivo. The following applies: IP.
In test [1] the test system is mice with diet-induced obesity. The test can be described thus: Feeding test in mice with diet-induced obesity. It is filed as in vivo. The following applies: IP, acute.
The subject of test [2] is gastric emptying rate in mice. The test can be described thus: Gastric emptying. It is filed as in vivo. The following applies: IP, one hour after administration. Here is the method: Before the experiments on gastric emptying, mice were food deprived for 16 hours with free access to water. The fasted mice had free access to pre-weighed pellets for one hour and were then administered [D-Lys-3]-GHRP-6. The mice were deprived of food again for one or two hours after administration. Food intake was measured by weighing the uneaten pellets. Mice were killed by cervical dislocation two or three hours after the start of the experiments. Immediately after that, the stomach was exposed by laparotomy, quickly ligated at both the pylorus and cardia, then removed, and its dry content was weighed. Gastric emptying was calculated according to the following formula: gastric emptying (%)={1−(dry weight of food recovered from the stomach/weight of food intake)}×100. (8) Repeated Administration

In another test the target is T1, GHS-R in the brain (Mus musculus, UniProt Q99P50).
T1 construct: possibility that ghrelin would act through GHS-R in the brain; from tissue; host or cells: brain of living mice (ICV administration)
T1 sequence (Q99P50 whole entry): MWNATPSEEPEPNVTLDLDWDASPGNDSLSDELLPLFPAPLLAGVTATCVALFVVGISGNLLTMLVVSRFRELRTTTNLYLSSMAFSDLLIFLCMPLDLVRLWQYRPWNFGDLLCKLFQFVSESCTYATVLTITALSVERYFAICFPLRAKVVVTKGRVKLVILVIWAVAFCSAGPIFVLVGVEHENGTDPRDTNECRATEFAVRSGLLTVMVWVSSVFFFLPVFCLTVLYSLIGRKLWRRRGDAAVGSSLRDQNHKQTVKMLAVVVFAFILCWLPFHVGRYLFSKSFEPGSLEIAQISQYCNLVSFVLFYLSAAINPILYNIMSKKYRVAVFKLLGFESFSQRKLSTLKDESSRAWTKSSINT
Description: Simultaneous administration of ghrelin (IP) and [D-Lys-3]-GHRP-6 (ICV), food intake. The following applies: free access to food. It is filed as in vivo, mice. On the procedure:
For ICV administration, the mice were anesthetized with sodium pentobarbital (80-85 mg/kg IP) and placed in a stereotaxic instrument (SR-6, Narishige, Tokyo, Japan) seven days before the experiments. A hole was made in each skull by using a needle inserted 0.9 mm lateral to the central suture and 0.9 mm posterior to the bregma. A 24-gauge cannula (Safelet-Cas, Nipro, Osaka, Japan) beveled at one end over a distance of 3 mm was implanted into the third cerebral ventricle for ICV administration. The cannula was fixed to the skull with dental cement and capped with silicon. A 27-gauge injection insert was attached to a microsyringe by PE-20 tubing.
Before feeding tests, mice were food deprived for 16 hours with free access to water, except during an experiment on the effect of co-administration of [D-Lys-3]-GHRP-6 and ghrelin on food intake, in which mice were given free access to food and water. Food intake was measured by subtracting uneaten food from the initially pre-measured food at 20 minutes, 1, 2 and 4 hours after administration.
In order to evaluate the possibility that ghrelin would act through GHS-R in the brain, the inventors examined the effects of simultaneous administration of ghrelin and [D-Lys-3]-GHRP-6 on food intake.

The subject of another test is ob/ob obese mice. Description: Repeated IP administration of [D-Lys-3]-GHRP-6 in ob/ob obese mice. It is filed as in vivo.
The conditions of test [3]: rat des-Gln14-ghrelin; cited from earlier work.
The test system of another test is pituitary gland cells. As to conditions: primary culture of pituitary gland cells; cited from earlier work.
A further test addresses GHS-R (Rattus norvegicus, UniProt O08725). As to conditions: CHO cells having GHS-R expressed, chemically synthesized ghrelin; cited from earlier work.
For test [4], the system named is leptin and resistin mRNA in WAT. The following applies: repeated IP administrations of ghrelin. On the procedure: (§1) Repeated IP administrations were continued for five days in lean mice under a high-fat diet or a standard diet, and for six days in […] obese mice under a standard diet, respectively. The mice were given the administration at 7:00 AM and 19:00 PM. Food intake and body weight were measured daily. Serum was separated from blood obtained from the orbital sinus under ether anesthesia at the end of the experiment (eight hours after removal of food and the final IP administration). Mice were killed by cervical dislocation. Immediately after that, the epididymal fat pad mass assessed as white adipose tissue (WAT) and the gastrocnemius muscle were removed and weighed. Blood glucose was measured by the glucose oxidase method. Serum insulin and free fatty acids (FFA) were measured by enzyme immunoassay and enzymatic method (EIKEN CHEMICAL CO., LTD., Tokyo, Japan), respectively. Serum triglycerides and total cholesterol were measured by an enzymatic method (Wako Pure Chemical Industries, Ltd., Tokyo, Japan).
(§2) Subsequently, mRNA levels of leptin, adiponectin and resistin in WAT were assessed.

In test [5] the test system is lean mice under a high-fat diet. Here is the method:
Male mice of the ddy strain (34-37 g, JAPAN SLC, Shizuoka, Japan) and obese (ob/ob) C57BL/6J mice (68-74 g, Shionogi Co., Ltd., Shiga, Japan) were used. They were individually housed in a regulated environment (22±2° C., 55±10% humidity, 12:12 hour light:dark cycle with light on at 7:00 AM). Mice received a standard diet containing 12% of total energy as fat or a high-fat diet containing 45% of total energy as fat (CLEA Japan, INC., Tokyo, Japan). Food and water were available ad lib except as otherwise indicated. All experiments were approved by Kobe University animal care committee.
[D-Lys-3]-GHRP-6, [D-Arg-1, D-Phe-5, D-Trp-7, 9, Leu-11] substance P and rat ghrelin were purchased from BACHEM CALIFORNIA INC. (Torrance, Calif., USA), NEOSYSTEM (Strasbourg, France) and Peptide Institute (Osaka, Japan), respectively. Just before administration, each drug was diluted in 4 μl of artificial cerebrospinal fluid (ACSF) for intra-third cerebroventricular (ICV) administration or in 100 μl of physiological saline for intraperitoneal (IP) administration. Results are expressed as mean value±s.e.m. Analysis of variance(ANOVA) followed by Bonferroni's t test was used to assess the differences among groups. P<0.05 was considered to be statistically significant.
as §1, §2

In another test the test system is rats. As to conditions: rats in vivo; cited from earlier work.
Where [6] appears, read: 20 nmol IP every 12 hours for 6 days.
Where [7] appears, read: 200 nmol IP every 12 hours for 6 days.
The mark [8] stands for this setting: HF diet, every 12 hours for 5 days, lean mice, mean ± s.e.m.
[9] abbreviates: IP 3 nmol/mouse twice daily for five days.
[10] abbreviates: IP 3 nmol/mouse twice daily for five days, high-fat diet.

No end group written: not given here.

Sequence of GHS-R (O08725 whole entry): as the sequence (Q99P50 whole entry) above, with S30P, S249A counted along it

“[D-Arg-1, D-Phe-5, D-Trp-7, 9, Leu-11] substance P”: the Food intake entry with food-deprived mice was “significantly reduced food intake in a dose-dependent manner”.

With [D-Lys-3]-GHRP-6, the Food intake entry in the test on ob/ob mice is recorded as “significantly reduced food intake in ob/ob mice”. Besides, in test [1], the Body weight gain result is recorded as “resulting decrease in body weight gain” and the Food intake entry was “decreased potently”. Moreover, the Gastric emptying rate entry in [2] is “significant decrease in the gastric emptying rate”. The Feeding behavior entry with food-deprived mice (ICV administration) was “potent decrease in feeding behavior”. The Food intake entry in the test with food-deprived mice was “significantly reduced food intake in a dose-dependent manner”. At GHS-R in the brain ([D-Lys-3]-GHRP-6 ICV), the “Effect on feeding induced by IP administration of ghrelin” value is on record as “abolished the stimulatory effects on the feeding”. Further, in the test on ob/ob obese mice (setting [6]), the Cholesterol was 219.0 ± 11.24 mg/dL, the “Fat pad mass (epididymal)” value was 0.897 ± 0.169 g, the Food intake came to 4.527 ± 0.261 g/day and the Free fatty acids is listed as 2.036 ± 0.121 meq/l. Also, in the test with ob/ob obese mice (setting [6]), the “Glucose (blood)” value came to 217.3 ± 27.90 mg/dL, the Insulin was determined as 41.61 ± 10.85 ng/mL, the “Skeletal muscle (gastrocnemius)” value turned out to be 0.314 ± 0.009 g and the Triglycerides was found to be 38.57 ± 3.551 mg/dL. In the test with ob/ob obese mice (setting [7]), the Cholesterol stood at 228.4 ± 21.84 mg/dL, the “Fat pad mass (epididymal)” value amounted to 0.860 ± 0.086 g, the Food intake is recorded as 4.285 ± 0.298 g/day and the Free fatty acids is recorded as 1.646 ± 0.078 meq/l. Besides, in the test with ob/ob obese mice (setting [7]), the “Glucose (blood)” value amounted to 134.9 ± 19.47 mg/dL, the Insulin was found to be 36.54 ± 8.695 ng/mL, the “Skeletal muscle (gastrocnemius)” value is 0.326 ± 0.013 g and the Triglycerides came out at 41.14 ± 5.990 mg/dL. In the test on ob/ob obese mice (repeated administrations), the Blood glucose concentrations entry was “significantly lowered”, the Body weight gain entry is given as “significantly lowered”, the Muscle weight entry was “without reducing the muscle weight” and the “Reduction of FFA levels compared with physiological saline-treated ob/ob mice” value came out at 24%.

For “des-Gln14-ghrelin: ghrelin analog in which Gln 14 in ghrelin is deleted (GSSFLSPEHQKAQRKESKKPPAKLQPR; ends and bridges not checked; UniProt Q9QYH7 24-51, looked up, variant Q14*)”, the “Growth hormone releasing activity relative to ghrelin” value in [3] is given as “the same intensity of growth hormone releasing activity”.

With ghrelin, the Growth hormone release result in the test with pituitary gland cells is listed as “activity of releasing growth hormone”. In addition, the “Amount having the activity of elevating intracellular Ca++” value on GHS-R is “nanomolar order”. Besides, in test [4], the “Leptin mRNA expression in WAT” value was “increased” and the “Resistin mRNA expression in WAT” value is “reducing”. Further, in [5] (setting [8]), the Calorie intake came out at 25.94 ± 2.562 kcal/day, the Cholesterol was found to be 224.8 ± 19.69 mg/dL, the “Fat pad mass (epididymal)” value is on record as 1.202 ± 0.175 g and the Free fatty acids was found to be 1.636 ± 0.047 meq/l. For the same substance, in test [5] (setting [8]), the “Glucose (blood)” value was found to be 160.5 ± 8.977 mg/dL, the Insulin amounted to 2.520 ± 0.945 ng/mL, the “Skeletal muscle (gastrocnemius)” value is 0.340 ± 0.005 g and the Triglycerides was found to be 32.80 ± 7.965 mg/dL. In addition, in test [5] (setting [9]), the “Fat pad mass increase compared with saline-treated mice fed high-fat diet” value amounted to 125% and the “Fat pad mass increase compared with saline-treated mice fed standard diet” value was 49%. Moreover, in test [5] (setting [10]), the Blood glucose concentrations entry is listed as “moderate increase”, the Body weight gain entry is given as “increased significantly”, the Daily energy intake entry is recorded as “concomitant increase” and the Serum cholesterol level entry was “also increased”. Besides, in test [5] (setting [10]), the Serum insulin level entry is on record as “also increased” and the Skeletal muscle weight entry is listed as “did not show any increase in weight”. Moreover, the “Growth hormone in the blood” value in the test on rats is reported as “elevates growth hormone in the blood”. In addition, the “Feeding after IP ghrelin” value on GHS-R in the brain is “stimulatory effects on the feeding”.
